Source: US10779550B2, “Human milk oligosaccharides to ameliorate symptoms of stress” (ABBOTT LABORATORIES, priority 2012, dated 2020)
Marks after values point to notes of the source that are not given here.

Tests used:
[1] = test system: fecal samples taken from breast-fed infants (BF) (intestinal flora); experiment: Anaerobic fermentation of HMOs with fecal inocula from breast-fed infants; GABA and agmatine in supernatant by GC/MS and LC/MS/MS; type: cell-based, human; conditions: for GABA, ratio HMO/blank / agmatine, ratio HMO/blank: breast fed infants, fermentation 37° C.; for GABA and agmatine relative to a blank (in words): breast-fed infants (BF) fecal fermentation cultures
Method: (§1) Fecal samples from eight human babies, one group of four breast-fed and the other group of four formula-fed, were used as inocula for anaerobic fermentation (37° C.) of lacto-N-neotetraose (LNnT) and 6′-sialyllactose. Supernatants from the fermentation cultures were sampled at 0 hr, 3 hr, and 6 hr. A culture without addition of HMOs served as a control. A sample of the fermentation medium (blank), which constituted approximately 90% of the starting culture volume, was also analyzed.
(§2) Samples were extracted and split into equal parts for analysis on GC/MS and LC/MS/MS platforms. GABA and agmatine ions were identified in chromatograms, and peak area was integrated for quantitative analysis.

[2] = test system: fecal samples taken from formula-fed infants (FF) (intestinal flora); experiment: Anaerobic fermentation of HMOs with fecal inocula from formula-fed infants; GABA and agmatine in supernatant by GC/MS and LC/MS/MS; type: cell-based, human; conditions: for GABA, ratio HMO/blank / agmatine, ratio HMO/blank: formula fed infants, fermentation 37° C.; for GABA and agmatine relative to a blank (in words): formula-fed infants (FF) fecal fermentation cultures
Method: as §1, §2

SMILES	GABA, ratio HMO/blank ([1]; 0 h)	agmatine, ratio HMO/blank ([1]; 0 h)	GABA, ratio HMO/blank ([1]; 3 h)	agmatine, ratio HMO/blank ([1]; 3 h)	GABA, ratio HMO/blank ([1]; 6 h)	agmatine, ratio HMO/blank ([1]; 6 h)	GABA and agmatine relative to a blank (in words) [1]	GABA, ratio HMO/blank ([2]; 0 h)	agmatine, ratio HMO/blank ([2]; 0 h)	GABA, ratio HMO/blank ([2]; 3 h)	agmatine, ratio HMO/blank ([2]; 3 h)	GABA, ratio HMO/blank ([2]; 6 h)	agmatine, ratio HMO/blank ([2]; 6 h)	GABA and agmatine relative to a blank (in words) [2]
CC(=O)N[C@H]1[C@H](O[C@H]2[C@@H](O)[C@@H](CO)O[C@@H](O[C@H]3[C@H](O)[C@@H](O)C(O)O[C@@H]3CO)[C@@H]2O)O[C@H](CO)[C@@H](O[C@@H]2O[C@H](CO)[C@H](O)[C@H](O)[C@H]2O)[C@@H]1O (mixture of isomers) [LNnT, lacto-N-neotetraose]	3.66	9.52^a	14.78	34.4	17.46^a	1.59	dramatic increases	3.25	2.12	27.83^a	61.77^a	33.42^a	75.02^a	dramatic increases
CC(=O)N[C@H]1[C@H]([C@H](O)[C@H](O)CO)O[C@@](OC[C@H]2O[C@@H](O[C@H]3[C@H](O)[C@@H](O)[C@H](O)O[C@@H]3CO)[C@H](O)[C@@H](O)[C@H]2O)(C(=O)O)C[C@@H]1O [6′SL, 6′-sialyllactose]	1.22	8.23^a	3.53	10.51	5.32	3.43	dramatic increases	0.6	1.4	4.31	11.99	16.99^a	3.76	dramatic increases
